pIC50: −log10 of the molar value.

The first assay addresses T1, Recombinant human calpain I (Homo sapiens, UniProt P07384).
T1 construct: made in house
T1 sequence (P07384 1-714): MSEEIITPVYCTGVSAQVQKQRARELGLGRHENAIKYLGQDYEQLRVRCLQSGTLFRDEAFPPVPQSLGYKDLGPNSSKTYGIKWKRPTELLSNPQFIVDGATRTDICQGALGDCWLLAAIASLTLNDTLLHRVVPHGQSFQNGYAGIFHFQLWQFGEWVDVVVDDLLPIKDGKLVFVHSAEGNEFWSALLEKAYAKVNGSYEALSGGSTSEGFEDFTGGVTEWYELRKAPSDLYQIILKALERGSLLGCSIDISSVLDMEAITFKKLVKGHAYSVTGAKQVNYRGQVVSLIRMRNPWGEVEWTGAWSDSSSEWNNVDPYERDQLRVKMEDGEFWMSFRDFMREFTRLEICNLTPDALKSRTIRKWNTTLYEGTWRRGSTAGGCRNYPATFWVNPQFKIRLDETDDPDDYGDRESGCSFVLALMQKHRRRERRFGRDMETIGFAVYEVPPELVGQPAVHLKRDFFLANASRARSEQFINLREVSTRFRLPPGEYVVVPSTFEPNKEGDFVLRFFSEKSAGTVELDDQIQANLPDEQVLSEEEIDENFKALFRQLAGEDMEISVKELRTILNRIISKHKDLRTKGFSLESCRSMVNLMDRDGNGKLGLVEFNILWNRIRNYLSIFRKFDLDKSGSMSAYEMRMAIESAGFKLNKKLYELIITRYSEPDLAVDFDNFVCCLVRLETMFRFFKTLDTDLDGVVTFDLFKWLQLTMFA
The assay can be described thus: Inhibition of calpain I (Succ-Leu-Tyr-MNA hydrolysis). Type of assay: biochemical. The conditions noted are these: Table 5; ** explained as 10,000 nM only in footnotes to Tables 2-4. How it is done:
To evaluate inhibitory activity, stock solutions (40 times concentrated) of each compound to be tested were prepared in 100% anhydrous DMSO and 5 μl of each inhibitor preparation was aliquoted into each of three wells of a 96-well plate. Recombinant human calpain I, prepared by the method of Meyer et al. (Biochem. J. 1996, 314: 511-519), was diluted into assay buffer (i.e., 50 mM Tris, 50 mM NaCl, 1 mM EDTA, 1 mM EGTA, and 5 mM β-mercaptoethanol, pH 7.5, including 0.2 mM Succ-Leu-Tyr-MNA), and 175 μl was aliquoted into the same wells containing the independent inhibitor stocks as well as to positive control wells containing 5 μl DMSO, but no compound. To start the reaction, 20 μl of 50 mM CaCl2 in assay buffer was added to all wells of the plate, excepting three, which were used as background signal baseline controls. Substrate hydrolysis was monitored every 5 minutes for a total of 30 minutes. Substrate hydrolysis in the absence of inhibitor was linear for up to 15 minutes.
Inhibition of calpain I activity was calculated as the percent decrease in the rate of substrate hydrolysis in the presence of inhibitor relative to the rate in its absence. Comparison between the inhibited and control rates was made within the linear range for substrate hydrolysis. The IC50 S of inhibitors (concentration yielding 50% inhibition) were determined from the percent decrease in rates of substrate hydrolysis in the presence of five to seven different concentrations of the test compound. The results were plotted as percent inhibition versus log inhibitor concentration, and the IC50 was calculated by fitting the data to the four-parameter logistic equation shown below using the program GraphPad Prism (GraphPad Software, Inc., San Diego, Calif.).
The parameters a, b, c, and d are defined as follows: a is % inhibition in the absence of inhibitor, b is the slope, c is the IC50, and d is the % inhibition at an infinite concentration of inhibitor.
`COCC(NC(=O)c1cc(Cl)nc2ccccc12)C(=O)C(=O)NCCNS(=O)(=O)c1ccccc1` (centres unmarked) [Example 158]: the “Calpain I IC50 ** (value in parentheses: % inhibition)” value came to 94%.

The same assay, now with this note: Table 5; head prints no unit.
For `COCC(NC(=O)c1cc(Cl)nc2ccccc12)C(=O)C(=O)NCCNS(=O)(=O)c1ccc(-c2ccccn2)s1` (centres unmarked) [Example 157], the pIC50 was 7.21.
With `CCCCC(NC(=O)c1cc(Cl)nc2ccccc12)C(=O)C(=O)NCCNS(=O)(=O)c1ccc(Cl)c(Cl)c1` (centres unmarked) [Example 151], the pIC50 is 6.66.
On to `CCCCC(NC(=O)c1cc(Cl)nc2ccccc12)C(=O)C(=O)NCCNS(=O)(=O)c1ccc([N+](=O)[O-])cc1` (centres unmarked) [Example 149], for which the pIC50 was 7.64.
Take `CCCC(NC(=O)c1cc(Cl)nc2ccccc12)C(=O)C(=O)NCCNS(=O)(=O)c1ccc(Cl)c(Cl)c1` (centres unmarked) [Example 152]: the pIC50 was 6.49.

The same assay, now with this note: Tables 2-4; pH 7.5.
Take `CC(NC(=O)C(=O)C(Cc1ccccc1)NC(=O)c1cc(C#Cc2ccccc2)nc2ccccc12)c1ccccc1` (centres unmarked) [Example 27]: the pIC50 was 6.29.
Turning to `O=C(NCCNC(=O)C(=O)C(Cc1ccccc1)NC(=O)c1cc(C#Cc2ccccc2)nc2ccccc12)Nc1ccccc1` (centres unmarked) [Example 64], the negative-log IC50 (pIC50) was 7.17.
For `O=C(NCCNS(=O)(=O)c1ccccc1)C(=O)C(Cc1ccccc1)NC(=O)c1cc(C#Cc2ccccc2)nc2ccccc12` (centres unmarked) [Example 95], the negative logarithm of the IC50 (pIC50) was 7.37.
Still for that read-out and setting: with `COCCNC(=O)C(=O)C(Cc1ccccc1)NC(=O)c1cc(C#Cc2ccccc2)nc2ccccc12` (centres unmarked) [Example 11] the figure was 6.32; with `O=C(NCCCCc1ccccc1)C(=O)C(Cc1ccccc1)NC(=O)c1cc(C#Cc2ccccc2)nc2ccccc12` (centres unmarked) [Example 34], 6.64; with `O=C(NCc1ccc2c(c1)OCO2)C(=O)C(Cc1ccccc1)NC(=O)c1cc(C#Cc2ccccc2)nc2ccccc12` (centres unmarked) [Example 33], 6.41.
Consider `O=C(NCCNS(=O)(=O)Cc1ccccc1)C(=O)C(Cc1ccccc1)NC(=O)c1cc(C#Cc2ccccc2)nc2ccccc12` (centres unmarked) [Example 92], for which the pIC50 was 7.03.
For `NS(=O)(=O)c1ccc(CNC(=O)C(=O)C(Cc2ccccc2)NC(=O)c2cc(C#Cc3ccccc3)nc3ccccc23)cc1` (centres unmarked) [Example 39], the pIC50 is 6.74.
With `O=C(NCCNS(=O)(=O)c1cccnc1)C(=O)[C@H](Cc1ccccc1)NC(=O)c1cc(C#Cc2ccccc2)nc2ccccc12` [Example 87], the negative-log IC50 (pIC50) was 7.25.
On to `O=C(NCCCN1CCOCC1)C(=O)C(Cc1ccccc1)NC(=O)c1cc(C#Cc2ccccc2)nc2ccccc12` (centres unmarked) [Example 51], for which the pIC50 was 6.37.
The same measure, in the same setting: with `CC(=O)NCCNC(=O)C(=O)C(Cc1ccccc1)NC(=O)c1cc(C#Cc2ccccc2)nc2ccccc12` (centres unmarked) [Example 60] the figure was 6.85.
As to `O=C(NCCNS(=O)(=O)c1cccnc1)C(=O)C(Cc1ccccc1)NC(=O)c1cc(Cl)nc2ccccc12` (single isomer, unassigned) [Example 141], the pIC50 was 7.06.
Regarding `CCCCNC(=O)C(=O)C(Cc1ccccc1)NC(=O)c1cc(C=Cc2ccccc2)nc2ccccc12` (centres unmarked) [Example 130], the pIC50 was 6.98.
For the compound `CS(=O)(=O)NCCNC(=O)C(=O)C(Cc1ccccc1)NC(=O)c1cc(C#Cc2ccccc2)nc2ccccc12` (centres unmarked) [Example 93], the pIC50 was 6.74.
Turning to `CS(=O)(=O)NCCCNC(=O)C(=O)C(Cc1ccccc1)NC(=O)c1cc(C#Cc2ccccc2)nc2ccccc12` (centres unmarked) [Example 99], the pIC50 was 6.89.
In the case of `CCCCCCOCCOCCOCCNC(=O)C(=O)C(Cc1ccccc1)NC(=O)c1cc(C#Cc2ccccc2)nc2ccccc12` (centres unmarked) [Example 9], the pIC50 was 6.64.
Same read-out and setting: the figure for `COC(=O)C(Cc1ccccc1)NC(=O)C(=O)C(Cc1ccccc1)NC(=O)c1cc(C#Cc2ccccc2)nc2ccccc12` (centres unmarked) [Example 109] is 6.18.
`COC(CNC(=O)C(=O)C(Cc1ccccc1)NC(=O)c1cc(C#Cc2ccccc2)nc2ccccc12)OC` (centres unmarked) [Example 7]: the pIC50 is 6.96.
Regarding `O=C(NCCNS(=O)(=O)c1cccs1)C(=O)C(Cc1ccccc1)NC(=O)c1cc(C#Cc2ccccc2)nc2ccccc12` (centres unmarked) [Example 90], the pIC50 was 7.12.
On to `O=C(NCCNS(=O)(=O)c1ccc(-c2ccccn2)s1)C(=O)[C@H](Cc1ccccc1)NC(=O)c1cc(Cl)nc2ccccc12` [Example 144], for which the pIC50 was 7.85.
Take `COc1ccc2[nH]cc(CCNC(=O)C(=O)C(Cc3ccccc3)NC(=O)c3cc(C#Cc4ccccc4)nc4ccccc34)c2c1` (centres unmarked) [Example 49]: the negative-log IC50 (pIC50) was 6.80.
Still for that read-out and setting: with `O=C(NCCOCCO)C(=O)C(Cc1ccccc1)NC(=O)c1cc(C#Cc2ccccc2)nc2ccccc12` (centres unmarked) [Example 10] the figure was 6.20; with `COCCOCCCNC(=O)C(=O)C(Cc1ccccc1)NC(=O)c1cc(C#Cc2ccccc2)nc2ccccc12` (centres unmarked) [Example 8], 6.24; with `O=C(NC1CCCCNC1=O)C(=O)C(Cc1ccccc1)NC(=O)c1cc(C#Cc2ccccc2)nc2ccccc12` (centres unmarked) [Example 22], 7.11.
Consider `O=C(NCCNS(=O)(=O)c1cccc2nsnc12)C(=O)C(Cc1ccccc1)NC(=O)c1cc(C#Cc2ccccc2)nc2ccccc12` (centres unmarked) [Example 71], for which the negative-log IC50 (pIC50) is 7.05.

The same assay, now with this note: Tables 2-4; values in parentheses; at 10,000 nM.
With `O=C(NCCNS(=O)(=O)c1ccccc1)C(=O)C(Cc1ccccc1)NC(=O)c1cc(-c2cccnc2)nc2ccccc12` (centres unmarked) [Example 136], the inhibition at 10 µM came out at 99%.
In the case of `COC(CNC(=O)C(=O)C(CC(C)C)NC(=O)c1cc(C#Cc2ccccc2)nc2ccccc12)OC` (centres unmarked) [Example 113], the inhibition at 10 µM was found to be 92%.
Turning to `O=C(NCC1CCCO1)C(=O)C(Cc1ccccc1)NC(=O)c1cc(C#Cc2ccccc2)nc2ccccc12` (centres unmarked) [Example 54], the inhibition at 10 µM came to 84%.
For the compound `O=C(NC1CCCCC1)C(=O)C(Cc1ccccc1)NC(=O)c1cc(C#Cc2ccccc2)nc2ccccc12` (centres unmarked) [Example 30], the inhibition at 10 µM came to 85%.
The same measure, in the same setting: with `COc1ccc(CCNC(=O)C(=O)C(Cc2ccccc2)NC(=O)c2cc(C#Cc3ccccc3)nc3ccccc23)cc1OC` (centres unmarked) [Example 41] the figure was 88%; with `CC(C)CC(NC(=O)c1cc(C#Cc2ccccc2)nc2ccccc12)C(=O)C(=O)NCCNC(=O)Nc1ccccc1` (centres unmarked) [Example 116], 89%; with `O=C(NCCCO)C(=O)C(Cc1ccccc1)NC(=O)c1cc(C#Cc2ccccc2)nc2ccccc12` (centres unmarked) [Example 12], 94%.
For the compound `O=C(NC(CO)Cc1ccccc1)C(=O)C(Cc1ccccc1)NC(=O)c1cc(C#Cc2ccccc2)nc2ccccc12` (centres unmarked) [Example 23], the inhibition at 10 µM came out at 75%.
On to `CC(NC(=O)C(=O)C(Cc1ccccc1)NC(=O)c1cc(C#Cc2ccccc2)nc2ccccc12)c1cccc2ccccc12` (centres unmarked) [Example 26], for which the inhibition at 10 µM was 31%.
In the case of `O=C(NCC(F)(F)F)C(=O)C(Cc1ccccc1)NC(=O)c1cc(C#Cc2ccccc2)nc2ccccc12` (centres unmarked) [Example 2], the inhibition at 10 µM was found to be 98%.
`CC(C)(C)OC(=O)CCNC(=O)C(=O)C(Cc1ccccc1)NC(=O)c1cc(C#Cc2ccccc2)nc2ccccc12` (centres unmarked) [Example 107]: the inhibition at 10 µM turned out to be 93%.
For the compound `CC(C)(C)OC(=O)NCCCNC(=O)C(=O)C(Cc1ccccc1)NC(=O)c1cc(C#Cc2ccccc2)nc2ccccc12` (centres unmarked) [Example 97], the inhibition at 10 µM is 100%.
Still for that read-out and setting: the figure for `N#CCCNC(=O)C(=O)C(Cc1ccccc1)NC(=O)c1cc(C#Cc2ccccc2)nc2ccccc12` (centres unmarked) [Example 5] is 95%; for `O=C(NCCCn1ccnc1)C(=O)C(Cc1ccccc1)NC(=O)c1cc(C#Cc2ccccc2)nc2ccccc12` (centres unmarked) [Example 50] it is 84%.
As for `O=C(NCCCCO)C(=O)C(Cc1ccccc1)NC(=O)c1cc(C#Cc2ccccc2)nc2ccccc12` (centres unmarked) [Example 13], the inhibition at 10 µM was 100%.
Turning to `COc1ccc(C(=O)NCCNC(=O)C(=O)C(Cc2ccccc2)NC(=O)c2cc(C#Cc3ccccc3)nc3ccccc23)cc1` (centres unmarked) [Example 57], the inhibition at 10 µM amounted to 71%.
On to `CC(C)CC(NC(=O)c1cc(C#Cc2ccccc2)nc2ccccc12)C(=O)C(=O)NCCNC(=O)OCc1ccccc1` (centres unmarked) [Example 115], for which the inhibition at 10 µM is 100%.

The record behind these values is patent US6083944A, “Quinoline-containing α-ketoamide cysteine and serine protease inhibitors” (Cephalon, Inc., priority 1998, dated 2000).
